# Activity calls are given as the source filed them. The calls are words filed in the database; no cut-off is given here.
# Tests used:
# [1] = Stability of the compound at -20 degreeC after 12 months; type: physicochemical; conditions: 8766 h
# DcpS = assay: (§1) Stability of the compound assessed as human recombinant DcpS -mediated hydrolysis after 90 mins by HPLC; type: ADME; conditions: human, recombinant DcpS; read-out: Drug degradation
# [2] = molecular target: Eukaryotic translation initiation factor 4E (Homo sapiens) (UniProt P06730); assay: Binding affinity to recombinant eIF4E by fluorescence quenching titration method
# [3] = molecular target: T1, Eukaryotic translation initiation factor 4E (Oryctolagus cuniculus, UniProt P29338); assay: Inhibition of eIF4E-mediated mRNA translation in rabbit reticulocyte lysate pre-incubated for 60 mins prior to mRNA addition by luciferase reporter gene assay
# [4] = molecular target: T1, Eukaryotic translation initiation factor 4E; assay: Inhibition of eIF4E-mediated mRNA translation in rabbit reticulocyte lysate by luciferase reporter gene assay
# [5] = Chemical stability of the compound in aqueous buffer at pH 8 assessed as decomposition at 5 mM after 24 hrs by RP-HPLC; type: physicochemical; conditions: read-out: Drug degradation
# [6] = Chemical stability of the compound in aqueous buffer at pH 6 assessed as decomposition at 5 mM up to 2 hrs by RP-HPLC; type: physicochemical; conditions: pH 6, 2 h, 5000 µM
# [7] = Chemical stability of the compound in aqueous buffer at pH 6 assessed as decomposition at 5 mM after 24 hrs by RP-HPLC; type: physicochemical; conditions: read-out: Drug degradation
# [8] = Chemical stability of the compound in aqueous buffer at pH 8 assessed as decomposition at 5 mM up to 2 hrs by RP-HPLC; type: physicochemical; conditions: pH 8, 2 h, 5000 µM
# [9] = Chemical stability of the compound in aqueous buffer at pH 2 assessed as decomposition at 5 mM up to 2 hrs by RP-HPLC; type: physicochemical; conditions: pH 2, 2 h, 5000 µM
# [10] = Chemical stability of the compound in aqueous buffer at pH 2 assessed as decomposition at 5 mM after 24 hrs by RP-HPLC; type: physicochemical; conditions: read-out: Drug degradation
# [11] = as §1; type: ADME; conditions: 1.5 h
# [12] = molecular target: Eukaryotic translation initiation factor 4E (Oryctolagus cuniculus) (UniProt P29338); assay: Inhibition of eIF4E-mediated mRNA translation in rabbit reticulocyte lysate assessed as translation efficiency after 60 mins by luciferase reporter gene assay relative to m7GpppG-capped mRNA
# Nucleic Acid = assay: Capping efficiency in mRNA after 60 mins by gel electrophoresis in the presence of SP6 polymerase; type: nucleic-acid assay
# Homo sapiens = species: Homo sapiens; assay: Selectivity ratio of Ka for human recombinant DcpS to Ka for eIF4E
# [13] = molecular target: T2, m7GpppX diphosphatase (Homo sapiens) (UniProt Q96C86)
# T2 sequence (whole entry): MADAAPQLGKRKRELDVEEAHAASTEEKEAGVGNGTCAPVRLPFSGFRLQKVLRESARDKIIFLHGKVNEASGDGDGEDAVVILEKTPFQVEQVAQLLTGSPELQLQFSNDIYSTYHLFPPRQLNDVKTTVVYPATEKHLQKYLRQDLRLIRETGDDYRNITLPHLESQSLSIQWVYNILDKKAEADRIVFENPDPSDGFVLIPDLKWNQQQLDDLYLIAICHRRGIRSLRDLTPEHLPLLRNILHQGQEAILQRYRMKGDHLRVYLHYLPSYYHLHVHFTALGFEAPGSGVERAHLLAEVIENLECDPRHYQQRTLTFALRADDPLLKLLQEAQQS
# Description: Binding affinity to human recombinant DcpS by fluorescence quenching titration method
# T1 sequence (P29338 whole entry): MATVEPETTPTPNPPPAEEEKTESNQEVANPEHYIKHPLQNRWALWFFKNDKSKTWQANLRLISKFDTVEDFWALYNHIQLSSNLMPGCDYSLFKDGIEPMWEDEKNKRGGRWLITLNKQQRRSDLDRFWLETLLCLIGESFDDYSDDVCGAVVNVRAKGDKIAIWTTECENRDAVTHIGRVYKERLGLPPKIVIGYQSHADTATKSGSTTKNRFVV
# Chain of Eukaryotic translation initiation factor 4E (Homo sapiens) (P06730 whole entry): as the sequence (P29338 whole entry) above, with P16T, A17T, D174E counted along it
# Chain of Eukaryotic translation initiation factor 4E (Oryctolagus cuniculus) (P29338 whole entry): as the sequence (P29338 whole entry) above
Stability [1],metabolised at 1.5 h (DcpS),Ka [2],IC50 [3],IC50 [4],"degraded at 24 h, 5000 µM [5]",Drug degradation [6],"degraded at 24 h, 5000 µM [7]",Drug degradation [8],Drug degradation [9],"degraded at 24 h, 5000 µM [10]",Drug degradation [11],fold change (FC) [12],Activity (Nucleic Acid),Ratio (Homo sapiens),Ka [13],SMILES
Stable,20%,10.1 µM⁻¹,5.97 µM,8.49 µM,< 10%,Not Active,< 10%,Not Active,Not Active,< 10%,–,–,–,–,–,C[n+]1cn([C@@H]2O[C@H](COP(=O)([O-])OP(=O)([O-])NP(=O)([O-])OC[C@H]3O[C@@H](n4cnc5c(=O)[nH]c(N)nc54)[C@H](O)[C@@H]3O)[C@@H](O)[C@H]2O)c2nc(N)[nH]c(=O)c21.[Na+].[Na+]
Stable,–,10.4 µM⁻¹,–,–,< 10%,Not Active,< 10%,Not Active,Not Active,< 10%,Not Active,1.11,Active,1.2,12.8 µM⁻¹,CO[C@@H]1[C@H](O)[C@@H](COP(=O)([O-])OP(=O)([O-])NP(=O)([O-])OC[C@H]2O[C@@H](n3cnc4c(=O)[nH]c(N)nc43)[C@H](O)[C@@H]2O)O[C@H]1n1c[n+](C)c2c(=O)[nH]c(N)nc21.[Na+].[Na+]

# From ChEMBL document CHEMBL1949618, “Synthesis and properties of mRNA cap analogs containing imidodiphosphate moiety--fairly mimicking natural cap structure, yet resistant to enzymatic hydrolysis” (Bioorg Med Chem, 2012)
